We go through 7 molecules from US11351173B2, “Substituted pyrrolo[1,2-a]pyrimidines and their use in the treatment of medical disorders” (Bial—R&D Investments, S.A., priority 2014, dated 2022).

For orientation: solubility means how much of the substance goes into solution per volume. Low readings indicate a poorly soluble substance, high ones a readily soluble substance.

The target in data set [1] is T1, glucocerebrosidase (Gcase) (Homo sapiens, UniProt P04062).
T1 construct: micellar solution containing 10 nM GCase and 100 nM saposin C
T1 sequence (P04062 40-536): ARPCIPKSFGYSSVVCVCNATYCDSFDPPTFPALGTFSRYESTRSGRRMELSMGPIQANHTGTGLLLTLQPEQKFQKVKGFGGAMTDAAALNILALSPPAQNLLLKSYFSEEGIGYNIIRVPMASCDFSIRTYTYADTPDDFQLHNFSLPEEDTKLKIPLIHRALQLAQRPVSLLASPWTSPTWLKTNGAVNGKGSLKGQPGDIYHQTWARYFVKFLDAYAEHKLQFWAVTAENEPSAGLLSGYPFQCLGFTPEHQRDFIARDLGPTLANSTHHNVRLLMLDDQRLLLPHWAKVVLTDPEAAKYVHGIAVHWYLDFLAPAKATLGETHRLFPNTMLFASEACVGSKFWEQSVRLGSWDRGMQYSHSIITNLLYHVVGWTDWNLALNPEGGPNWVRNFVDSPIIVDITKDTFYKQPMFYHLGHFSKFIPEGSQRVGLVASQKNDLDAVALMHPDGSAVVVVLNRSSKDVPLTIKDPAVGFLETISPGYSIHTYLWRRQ
Briefly: Glucocerebrosidase (Gcase) activation assay, 4-methylumbelliferyl-beta-D-glucopyranoside substrate, fluorescence readout. The class given is biochemical. To be noted: for activation at 0.1 µM: test compound at 0.1 μM, read-out: Percent Gcase Activation, 0.1 μM Test Compound; for activation at 1 µM: test compound at 1.0 μM, read-out: Percent Gcase Activation, 1 μM Test Compound. A digest of the protocol: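 Fluorescence (ex 365 nm, em 440 nm) read after glycine pH 12.5 stop of a 15 min room-temperature reaction. GCase 10 nM plus saposin C 100 nM in PS/triton micelles, pH 4.7, preincubated 30 min with compound; substrate solution held 2 mM 4-MU-beta-glucoside. Screened at 1.0 and 0.1 μM; 8-point, 3-fold curves from 5 μM top.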

Data set [2] can be described thus: physchem. To be noted: water, Compound Solubility in Water.
The nature of data set [3]: Compound solubility in water. To be noted: water; for solubility: Compound Solubility in Water.

Structures are written as SMILES. In brackets after ≈: the same amount, converted by molar mass.

`CCCCCC(=O)N1C2CCC1CC(NC(=O)c1ccn3c(C)cc(C)nc13)C2` (stereo not drawn) [III-127]: in data set [1], the activation at 0.1 µM is < 10% and the activation at 1 µM is < 30%. The molecule also showed a solubility in data set [2] of 6.5 µg/mL (≈ 16.4 µM).

On to `Cc1cc(C)n2ccc(C(=O)NC3CC4CCC(C3)N4CC(F)(F)F)c2n1` (stereo not drawn) [III-128], for which, in data set [1], the activation at 0.1 µM was < 10% and the activation at 1 µM is < 30%. In data set [2], this molecule registered a solubility of 18.9 µg/mL (≈ 49.7 µM).

For `CNCCCCOc1ccc(NC(=O)c2ccn3c(C)cc(C)nc23)cc1` [III-20], in data set [1], the activation at 0.1 µM is < 10% and the activation at 1 µM is < 30%. Further, the concentration in solution in data set [3] (solubility) came to 20.8 µg/mL (≈ 56.8 µM).

On to `CCCCO[C@H]1CC[C@H](NC(=O)c2ccn3c(C)cc(NC)nc23)CC1` [III-66], for which, in data set [1], the activation at 0.1 µM lay within 10 to 20% and the activation at 1 µM is > 60%. This molecule gave a solubility in data set [3] of 0.4 µg/mL (≈ 1.12 µM).

Turning to `Cc1cc(C)n2ccc(C(=O)Nc3ccc(-c4ccco4)cc3)c2n1` [III-117], in data set [1], the activation at 0.1 µM was > 20% and the activation at 1 µM is > 60%. In addition, the “Compound Solubility in Water” value in data set [3] was 0.02 µg/mL.

Regarding `COCCOc1ccc2c(c1)C(NC(=O)c1ccn3c(C)cc(C)nc13)CCO2` (stereo not drawn) [III-170], in data set [1], the activation at 0.1 µM was < 10% and the activation at 1 µM was 30 to 60%. In data set [3], this molecule gave a solubility of 9.2 µg/mL (≈ 23.3 µM).

Take `C#Cc1ccc(C(C)(C)NC(=O)c2ccn3c(COC)cc(COC)nc23)cc1` [III-156]: in data set [1], the activation at 0.1 µM was in the range of 10 to 20% and the activation at 1 µM is > 60%. This molecule also yielded a solubility in data set [3] of 13.9 µg/mL (≈ 35.5 µM).
